Measurements as given in PubChem BioAssay (NCI).
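A five-concentration, 48-hour dose response in 96-well plates underlies each endpoint, interpolated linearly between surrounding concentrations. GI50 marks 50% less growth. The concentration for full growth arrest is given as TGI.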

Assays:
Assay in all cases: NCI-60 cell line screen, 48 h
786-0 renal = tested on: 786-0 renal
A498 renal = tested on: A498 renal
A549 NSCLC = tested on: A549 NSCLC
ACHN renal = tested on: ACHN renal
BT-549 breast = tested on: BT-549 breast
CAKI-1 renal = tested on: CAKI-1 renal
CCRF-CEM leukemia = tested on: CCRF-CEM leukemia
COLO 205 colon = tested on: COLO 205 colon
DU-145 prostate = tested on: DU-145 prostate
EKVX NSCLC = tested on: EKVX NSCLC
HCC-2998 colon = tested on: HCC-2998 colon
HCT-116 colon = tested on: HCT-116 colon
HCT-15 colon = tested on: HCT-15 colon
HL-60(TB) leukemia = tested on: HL-60(TB) leukemia
HOP-62 NSCLC = tested on: HOP-62 NSCLC
HOP-92 NSCLC = tested on: HOP-92 NSCLC
HS 578T breast = tested on: HS 578T breast
HT29 colon = tested on: HT29 colon
IGROV1 ovarian = tested on: IGROV1 ovarian
K-562 leukemia = tested on: K-562 leukemia
KM12 colon = tested on: KM12 colon
LOX IMVI melanoma = tested on: LOX IMVI melanoma
M14 melanoma = tested on: M14 melanoma
MALME-3M melanoma = tested on: MALME-3M melanoma
MCF7 breast = tested on: MCF7 breast
MDA-MB-231 breast = tested on: MDA-MB-231 breast
MDA-MB-435 = tested on: MDA-MB-435
MOLT-4 leukemia = tested on: MOLT-4 leukemia
NCI-H226 lung = tested on: NCI-H226 lung
NCI-H23 lung = tested on: NCI-H23 lung
NCI-H460 lung = tested on: NCI-H460 lung
NCI-H522 lung = tested on: NCI-H522 lung
NCI/ADR-RES ovarian = tested on: NCI/ADR-RES ovarian
OVCAR-3 ovarian = tested on: OVCAR-3 ovarian
OVCAR-4 ovarian = tested on: OVCAR-4 ovarian
OVCAR-5 ovarian = tested on: OVCAR-5 ovarian
OVCAR-8 ovarian = tested on: OVCAR-8 ovarian
PC-3 prostate = tested on: PC-3 prostate
RPMI-8226 leukemia = tested on: RPMI-8226 leukemia
RXF 393 renal = tested on: RXF 393 renal
SF-268 CNS = tested on: SF-268 CNS
SF-295 CNS = tested on: SF-295 CNS
SF-539 CNS = tested on: SF-539 CNS
SK-MEL-2 melanoma = tested on: SK-MEL-2 melanoma
SK-MEL-28 melanoma = tested on: SK-MEL-28 melanoma
SK-MEL-5 melanoma = tested on: SK-MEL-5 melanoma
SK-OV-3 ovarian = tested on: SK-OV-3 ovarian
SN12C renal = tested on: SN12C renal
SNB-19 CNS = tested on: SNB-19 CNS
SNB-75 CNS = tested on: SNB-75 CNS
SR leukemia = tested on: SR leukemia
SW-620 colon = tested on: SW-620 colon
T-47D breast = tested on: T-47D breast
TK-10 renal = tested on: TK-10 renal
U251 CNS = tested on: U251 CNS
UACC-257 melanoma = tested on: UACC-257 melanoma
UACC-62 melanoma = tested on: UACC-62 melanoma
UO-31 renal = tested on: UO-31 renal

With `COC(=O)Nc1nc2ccc(Oc3ccc(NC(=O)Nc4cccc(Cl)c4)cc3)cc2[nH]1` the GI50 (786-0 renal) was 1.87 µM, the TGI (786-0 renal) was 8.28 µM and the GI50 (A498 renal) was 1.64 µM. It also gave a TGI (A498 renal) of 13.8 µM, a GI50 (A549 NSCLC) of 2.02 µM and a TGI (A549 NSCLC) of 8.87 µM. It also gave a GI50 (ACHN renal) of 2.23 µM, a TGI (ACHN renal) of over 18.6 µM and a GI50 (BT-549 breast) of 5.87 µM. It also gave a TGI (BT-549 breast) of over 21.8 µM, a GI50 (CAKI-1 renal) of 1.74 µM and a TGI (CAKI-1 renal) of over 21.6 µM. For the same compound, the GI50 (CCRF-CEM leukemia) was 0.838 µM, the TGI (CCRF-CEM leukemia) was over 15 µM and the GI50 (COLO 205 colon) was 0.916 µM. For the same compound, the TGI (COLO 205 colon) was 3.07 µM, the GI50 (DU-145 prostate) was 1.58 µM and the TGI (DU-145 prostate) was 8.44 µM. For the same compound, the GI50 (EKVX NSCLC) was 3.71 µM, the TGI (EKVX NSCLC) was over 25 µM and the GI50 (HCC-2998 colon) was 7.98 µM. The TGI (HCC-2998 colon) was over 25 µM, the GI50 (HCT-116 colon) was 1.09 µM and the TGI (HCT-116 colon) was 5.29 µM. The GI50 (HCT-15 colon) was 0.815 µM, the TGI (HCT-15 colon) was over 25 µM and the GI50 (HL-60(TB) leukemia) was 0.859 µM. The TGI (HL-60(TB) leukemia) was 2.92 µM, the GI50 (HOP-62 NSCLC) was 0.9 µM and the TGI (HOP-62 NSCLC) was 4.73 µM. For the same compound, the GI50 (HOP-92 NSCLC) was 0.853 µM, the TGI (HOP-92 NSCLC) was 5.47 µM and the GI50 (HS 578T breast) was 0.553 µM. For the same compound, the TGI (HS 578T breast) was 9.67 µM, the GI50 (HT29 colon) was 0.682 µM and the TGI (HT29 colon) was 3.48 µM. The GI50 (IGROV1 ovarian) was 2.86 µM, the TGI (IGROV1 ovarian) was 9.79 µM and the GI50 (K-562 leukemia) was 0.175 µM. It also gave a TGI (K-562 leukemia) of over 25 µM, a GI50 (KM12 colon) of 0.147 µM and a TGI (KM12 colon) of 3.8 µM. The GI50 (LOX IMVI melanoma) was 1.42 µM, the TGI (LOX IMVI melanoma) was 6.6 µM and the GI50 (M14 melanoma) was 1.25 µM. It also gave a TGI (M14 melanoma) of over 11.8 µM, a GI50 (MALME-3M melanoma) of 0.564 µM and a TGI (MALME-3M melanoma) of 7.95 µM. The GI50 (MCF7 breast) was 0.307 µM, the TGI (MCF7 breast) was 4.75 µM and the GI50 (MDA-MB-231 breast) was 3.31 µM. The TGI (MDA-MB-231 breast) was 19.3 µM, the GI50 (MDA-MB-435) was 0.0755 µM and the TGI (MDA-MB-435) was 0.315 µM. For the same compound, the GI50 (MOLT-4 leukemia) was 2.35 µM, the TGI (MOLT-4 leukemia) was 18.8 µM and the GI50 (NCI-H226 lung) was 2.46 µM. For the same compound, the TGI (NCI-H226 lung) was 24.3 µM, the GI50 (NCI-H23 lung) was 2.24 µM and the TGI (NCI-H23 lung) was 12.9 µM. The GI50 (NCI-H460 lung) was 0.802 µM, the TGI (NCI-H460 lung) was 3.86 µM and the GI50 (NCI-H522 lung) was 0.543 µM. It also gave a TGI (NCI-H522 lung) of 4.07 µM, a GI50 (NCI/ADR-RES ovarian) of 5.17 µM and a TGI (NCI/ADR-RES ovarian) of over 25 µM. It also gave a GI50 (OVCAR-3 ovarian) of 0.768 µM, a TGI (OVCAR-3 ovarian) of 2.23 µM and a GI50 (OVCAR-4 ovarian) of 3.05 µM. It also gave a TGI (OVCAR-4 ovarian) of 8.19 µM, a GI50 (OVCAR-5 ovarian) of 4.04 µM and a TGI (OVCAR-5 ovarian) of over 25 µM. For the same compound, the GI50 (OVCAR-8 ovarian) was 2.84 µM, the TGI (OVCAR-8 ovarian) was over 17.8 µM and the GI50 (PC-3 prostate) was 1 µM. It also gave a TGI (PC-3 prostate) of 7.1 µM, a GI50 (RPMI-8226 leukemia) of 1.64 µM and a TGI (RPMI-8226 leukemia) of over 25 µM. For the same compound, the GI50 (RXF 393 renal) was 0.445 µM, the TGI (RXF 393 renal) was 2.34 µM and the GI50 (SF-268 CNS) was 2.43 µM. The TGI (SF-268 CNS) was 15.3 µM, the GI50 (SF-295 CNS) was 0.777 µM and the TGI (SF-295 CNS) was 6.59 µM. For the same compound, the GI50 (SF-539 CNS) was 0.658 µM, the TGI (SF-539 CNS) was 6.85 µM and the GI50 (SK-MEL-2 melanoma) was 1.07 µM. The TGI (SK-MEL-2 melanoma) was 8.06 µM, the GI50 (SK-MEL-28 melanoma) was 1.84 µM and the TGI (SK-MEL-28 melanoma) was 7.41 µM. The GI50 (SK-MEL-5 melanoma) was 0.492 µM, the TGI (SK-MEL-5 melanoma) was 3.66 µM and the GI50 (SK-OV-3 ovarian) was 1.03 µM. It also gave a TGI (SK-OV-3 ovarian) of 4.62 µM, a GI50 (SN12C renal) of 2.06 µM and a TGI (SN12C renal) of 11.7 µM. The GI50 (SNB-19 CNS) was 2.61 µM, the TGI (SNB-19 CNS) was over 25 µM and the GI50 (SNB-75 CNS) was 0.689 µM. For the same compound, the TGI (SNB-75 CNS) was 8.36 µM, the GI50 (SR leukemia) was 0.144 µM and the TGI (SR leukemia) was over 14.3 µM. The GI50 (SW-620 colon) was 0.975 µM, the TGI (SW-620 colon) was 9.85 µM and the GI50 (T-47D breast) was 1.02 µM. For the same compound, the TGI (T-47D breast) was 5.65 µM, the GI50 (TK-10 renal) was 4 µM and the TGI (TK-10 renal) was 11.6 µM. For the same compound, the GI50 (U251 CNS) was 1.25 µM, the TGI (U251 CNS) was 5.68 µM and the GI50 (UACC-257 melanoma) was 1.7 µM. The TGI (UACC-257 melanoma) was 19.5 µM, the GI50 (UACC-62 melanoma) was 0.712 µM and the TGI (UACC-62 melanoma) was 4.78 µM. For the same compound, the GI50 (UO-31 renal) was 6.93 µM and the TGI (UO-31 renal) was over 21.4 µM.
